Test system: Kunming mice
Assay: Effects on sleep in mice: pentobarbital sodium of suprathreshold dose, sleep latency and duration
Type: in vivo
Conditions: gavage once a day for two consecutive weeks (diazepam 0.75 mg/kg; melatonin 75 mg/kg; embodiment/comparative raw material 3.5 g/kg), 50 mg/kg pentobarbital sodium i.p. 60 minutes after last administration, n=10
Text: • Test group 1: diazepam group. • Test group 2: melatonin group. • Test group 3: diazepam+embodiment 1 group. • Test group 4: diazepam+embodiment 4 group. • Test group 5: diazepam+embodiment 5 group. • Test group 6: diazepam+comparative example 1 group. • Test group 7: diazepam+comparative example 2 group.
Note: embodiments and comparative examples were concentrated and dried to obtain test raw materials.
Test animals: Kunming mice, 18-22 g. (specific pathogen free (SPF) grade, provided by the Pharmacology Department of Traditional Chinese Medicine, Beijing University of Chinese Medicine).
Test method: The mice were randomly divided into a control group and a test group. The test group 1: diazepam of 0.75 mg/kg was administrated by gavage once a day for two consecutive weeks. The test group 2: melatonin of 75 mg/kg was administrated by gavage once a day for two consecutive weeks. The test group 3 to test group 7: after administrating diazepam of 0.75 mg/kg by gavage, 3.5 g/kg of the raw material of the embodiment or comparative example is administrated once a day for two consecutive weeks. After 60 minutes of the last intragastric administration, the mice in each group were injected with 50 mg/kg pentobarbital sodium intraperitoneally, and the sleep latency and sleep duration of the mice in each group were recorded with the disappearance of righting reflex more than […] as the sleep standard.

Structure (SMILES)	Sleep duration [min]	Sleep latency [min]
CN1C(=O)CN=C(c2ccccc2)c2cc(Cl)ccc21 [Test group 1, diazepam]	126.37 ± 6.17	2.47 ± 0.27
COc1ccc2[nH]cc(CCNC(C)=O)c2c1 [Test group 2, melatonin]	64.38 ± 3.70	4.38 ± 0.35

— patent US20250049759A1, “PHARMACEUTICAL PREPARATION FOR ASSISTING IN PROMOTING SLEEP AND PREPARATION METHOD THEREOF” (Changde Jizhi Biological Technology Co., Ltd, priority 2023, published 2025)
